Experimental data: patent US20240368049A1, “ENHANCED PHYTOREMEDIATION FROM BIOAVAILABILITY OF PER- AND POLYFLUOROALKYL SUBSTANCES IN CONTAMINATED SOIL” (The Research Foundation for the State University of New York, priority 2023, published 2024)

Columns and labels:
[1] = SPLP (EPA method 1312) leachability of PFAS in biosolids amended soil; type: physicochemical; settings: for percentage of SPLP leachable PFAS in biosolids amended soil: without a sorbent, Day-80, pH 4.2
Experimental: PFAS in the freeze-dried timothy-grass shoots were extracted by MTBE-NaOH according to a previously developed method. Before extraction, each sample for extraction was spiked with 10 ng of 13C2-PFHxA as the surrogate for determining the extraction efficiency. EPA method 1312 (Synthetic Precipitation Leaching Procedure, SPLP) was performed on the biosolids amended soil after drying to determine the leachability of PFAS. Briefly, 20 mL of H2SO4/HNO3 reagent (60/40 wt/wt.) at pH=4.2 were added to the soil sample. The soil with the H2SO4/HNO3 reagent was then vortexed for 30s and shaken on an end over end mixer overnight. After centrifugation at 3500 g for 30 min, the supernatant was collected and subject to solid phase extraction (SPE) using HyperSep C18 cartridges (Thermo Scientific, Waltham, MA). The SPLP leachable PFAS on the C18 cartridges were eluted with 2 mL of methanol, followed by 2 mL of 0.1% NH40H amended methanol. The SPLP leachable PFAS in clean soil without biosolids amendment were analyzed as well. PFAS in the final plant extracts and SPLP leachates were quantified using a 1290 Infinity II LC system coupled with a 6470 Triple Quad Mass Spectrometer (LC-MS/MS, Agilent Technologies, Santa Clara, CA, USA).
FIG. 3 is a series of graphs 40 of percentages of leachable PFAS in biosolids-amended soil treated by different sorbents on Day-80 (n=3). Different letters represent significant differences among the treatments (p<0.05). […] Without a sorbent, almost 100% of leaching of PFHxA 42, PFHpA 44 and PFOA 46 was observed. Similarly to PFAS uptake by the shoots, a chain length effect was visible: the shorter the carbon chain of PFAS, the higher the leachability. […] Compared to PFAS concentrations in the shoots (FIG. 1), there was no positive correlation between acidic water leachable PFAS and the extent of shoot uptake for treatment with biochar at both doses and RemBind at the dose of 0.2%. Thus, results from SPLP at pH=4.2 for sites east of the Mississippi River may not be able to predict bioavailable PFAS to the studied grass. The SPLP is an established and widely adopted EPA method for investigating leaching of organic contaminants in soil. One should note that the acidic water used in the leaching procedure may actually decrease PFAS leaching due to the acidic nature of PFAAs. But since the focus here was to evaluate the effect of different sorbents toward stabilizing PFAS in soil amended by biosolids, the SPLP served our purpose well.

[2] = system: timothy-grass (Phleum pratense); test: uptake of PFAS by timothy-grass shoots grown in biosolids-amended soil treated by a sorbent or SDS; type: in vivo
Source text: The method uses the addition of a mobilizing reagent, at a predetermined dose as described herein, to amend the soil around a root system of one or more plants. The supplementing of the amended soil with a stabilizing reagent at a predetermined dose, as also defined below. In one embodiment, the preparation of biosolids amended soil uses a sandy loam soil used in this study (pH=7.56), which was collected from a local farm in Albany County, New York. The soil was passed through a 2-mm sieve before use. The contents of natural organic matter and total organic carbon of the sieved soil were 4.82±0.12% and 2.44±0.45%, respectively. The sieved soil was mixed with vermiculite in a 1:1 vol ratio for increasing water retention of the soil and improving soil aeration. Then, the processed soil for plant cultivation was distributed to 7-quart polypropylene containers (14.375″L×8.25″W×6″H). Each container had 1.3 kg of dry soil.
The biosolids after anaerobic digestion of sludge were collected from a nearby wastewater treatment plant close to University at Albany. The total solid and total organic carbon of the biosolids were 24.16±0.21% and 28.64±0.28%, respectively. […]
Timothy-grass seeds were purchased from OrOlam LLC (South Miami, FL). […] Around 1 g of the plant tissues from each treatment was used for chlorophyll extraction and quantification. […]

[3] = system: timothy-grass (Phleum pratense); test: chlorophyll content of timothy-grass shoots; type: in vivo; settings: mobilization treatment with SDS
Experimental: Timothy-grass seeds were purchased from OrOlam LLC (South Miami, FL). One gram of seeds was sown evenly in each tank containing the prepared biosolids amended soil. Enough water was then added to each tank to reach 100% of field capacity. The plants were cultivated in a greenhouse and watered every day. The timothy-grass started germinating on the 5th day after sowing. On Day-40 after seed germination, the above-ground shoots of the grass in each tank were cut and rinsed thoroughly using deionized water. Around 1 g of the plant tissues from each treatment was used for chlorophyll extraction and quantification. The remaining plant shoots were freeze-dried at −37° C. for 48 h and subject to PFAS extraction and analysis. The plants after cutting were kept under the same growth condition. On Day-80 after seed germination or day-40 after the first cut, the plant shoots were removed again and subject to chlorophyll and PFAS analysis. […]
On Day-40 and Day-80 after seed germination, 100 mg of fresh grass leaves were collected and used to quantify chlorophyll content. […] After 48 h, the chlorophyll concentration in the solvent was determined using a UV-Vis spectrophotometer (GENESYS 10S, Thermo Fisher Scientific, altham, MA, USA). The absorbance was read at 664 and 647 nm and used to calculate chlorophyll a and b and total chlorophyll content according to these equations: […]

SMILES | percentage of SPLP leachable PFAS in biosolids amended soil [1] | effect on uptake of PFAS by the shoots ([2]; SDS 100 mg/kg, Day-40, exceptions PFOA and PFOS) | effect on ΣPFAS uptake by the shoots ([2]; SDS, all three doses (10, 50, 100 mg/kg), Day-80) | effect on chlorophyll content in timothy-grass [3] | effect on acidic water leachable PFAS in biosolids amended soil ([1]; SDS at a dose up to 100 mg/kg)
O=C(O)C(F)(F)C(F)(F)C(F)(F)C(F)(F)C(F)(F)C(F)(F)F [PFHpA, perfluoroheptanoic acid] | ~100% |  |  |  | 
O=C(O)C(F)(F)C(F)(F)C(F)(F)C(F)(F)C(F)(F)F [PFHxA, perfluorohexanoic acid] | ~100% |  |  |  | 
O=C(O)C(F)(F)C(F)(F)C(F)(F)C(F)(F)C(F)(F)C(F)(F)C(F)(F)F [PFOA, perfluorooctanoic acid] | ~100% |  |  |  | 
CCCCCCCCCCCCOS(=O)(=O)[O-].[Na+] [SDS, sodium dodecyl sulphate] |  | significantly higher uptake of PFAS | significantly higher PFAS uptake | did not change the chlorophyll content | did not significantly increase
